Measurements taken from patent publication US5219732A, “Antibody-mediated cofactor-driven reactions” (priority 1990, dated 1993).
pKi: −log10 of the molar value. Blank lines part the entries; values can stand above or below the molecule they belong to.

Tests used:
Type in all cases: biochemical
[1] = test system: antibody 7G12-A10-G1-A12-mesohemin (Fe(III)mesoporphyrin) complex; experiment: Peroxidation of chromogenic peroxidase substrates with H2O2 catalyzed by antibody-mesohemin complex
Description: In further experiments, this antibody was used in the presence of H2 O2 to catalyze the oxidation of the following group of typical chromogenic peroxidase substrates: [drawing 7] Reaction mixtures contained 1 mM reducing substrate, 5 mM hydrogen peroxide, 0.5 mM Fe(III)mesoporphyrin chloride (mesohemin), 0.5% w/v Triton X-100, 4% v/v dimethyl sulfoxide (DMSO), and 90 mM tris acetate, pH 8.0, and were incubated at 10° C. Antibody samples contained 0.2 mg/mL (1.3 μM) protein.
The monitored wavelength and Δε value for each reaction, and the plot in FIG. 2 showing the corresponding absorption curves for each comparison are as follows:
The rate of o-dianisidine oxidation was examined at several o-dianisidine concentrations, ranging from 0.05 mM to 2.5 mM, using 10 mM H2 O2 in each case and other reaction conditions as described above. The initial rate of peroxidation v is shown in FIG. 3 as a function of o-dianisidine concentration for both reactions catalyzed by mesohemin alone (open squares) and reactions catalyzed by the antibody-mesohemin complex (filled squares).
Saturation kinetics for the o-dianisidine peroxidation reaction were determined at an o-dianisidine concentration of 0.6 mM, with the remaining reaction conditions as described above. Lineweaver-Burk plots are shown in FIG. 4 for both free mesohemin (open squares) and antibody-mesohemin complex (filled squares) as a function of H2 O2 concentrations. The rates shown are based on an estimated molar extinction coefficient (ε) of 7500 for oxidized o-dianisidine.

[2] = test system: antibody (elicited against pyridoxal/p-nitrophenylalanine Schiff base analog hapten) which enhanced the bimolecular condensation reaction; experiment: Inhibition by hapten of the transamination between p-nitrophenylpyruvic acid and pyridoxamine; details: 100 μM of the hapten
Description: (§1) A hapten was formed by first reacting pyridoxal with p-nitrophenylalanine in the presence of aqueous NaBH4 at pH 8.5 to form a stable Schiff base analog. The latter was then treated with thiourea in 48% HBr followed by aqueous ammonium hydroxide to form the disulfide dimer, which was then reduced and subjected to disulfide exchange with a carrier protein to yield a hapten-protein conjugate in which the hapten was the Schiff base analog.
(§2) Antibodies were elicited against the conjugate in accordance with conventional procedures, and seven antibodies specifically binding to the hapten itself were selected. Inhibition tests were conducted in which p-nitrophenylalanine and pyridoxamine individually were contacted with the antibodies to determine whether or not binding between the antibodies and the hapten-protein conjugate was inhibited in an ELISA assay.
(§3) The same seven antibodies were then used in the transamination reaction between p-nitrophenylpyruvic acid and pyridoxamine to form p-nitrophenylalanine. Reactions were performed in two separate buffer solutions, using 1 mM each of p-nitrophenylpyruvic acid and pyridoxamine, 10 μM antibody (IgG) and 250 μM m-nitrobenzylalcohol as an internal standard in each case. The first buffer solution consisted of 10 mM phosphate and 150 mM NaCl at pH 7.5, and the second consisted of 100 mM imidazole and 100 mM NaCl at pH 7.0.

[3] = test system: antibody (elicited against pyridoxal/p-nitrophenylalanine Schiff base analog hapten) which resulted in the highest rate of amino acid production in the …; experiment: as above; details: 100 μM of the hapten
Description: as §1, §2, §3

[4] = test system: antibody 7G12-A10-G1-A12 plus 1 μM Fe(III)-mesoporphyrin; experiment: Oxidation of pyrogallol, absorption at 420 nm monitored over time (FIG. 1); details: 5 μM NMMP
Description: In one experiment, the antibody was used for oxidation of pyrogallol as determined spectrometrically by monitoring […]. The reaction was as follows: [drawing 6] The product has a maximum absorption at 420 nm.
(a) 1 μM Fe(III)-mesoporphyrin only;
(c) the antibody plus 1 μM Fe(III)-mesoporphyrin and 5 μM NMMP; and
(d) the antibody plus 1 μM Fe(III)-mesoporphyrin only.

[5] = test system: monoclonal antibody 7G12-A10-G1-A12 elicited against N-methyl mesoporphyrin (NMMP); experiment: Inhibition of antibody-catalyzed chelation of metal ions by mesoporphyrin IX; details: inhibition of the antibody's catalytic ability (metal chelation by mesoporphyrin IX); read-out: inhibition constant (Ki)
From the text: N-Methyl mesoporphyrin (NMMP), a commercially available species obtained from Porphyrin Products, Logan, Utah, having the formula [drawing 3] was conjugated to a carrier protein by treatment of the NMMP with N-hydroxysuccinimide (NHS) and dicyclohexylcarbodiimide, followed by addition of the resulting NHS ester to a solution of the protein. Monoclonal antibodies were elicited in accordance with conventional procedures known to those skilled in the art, and purified by Protein A affinity chromatography.
The inhibition constant (Ki) for the iron(III)mesoporphyrin was less than 10 nM. The term "mesoporphyrin" is used here as an abbreviation for the more complete term "mesoporphyrin IX," and the abbreviations "MP" and "MPIX" are used interchangeably to refer to this species. Thus, "Fe(III)-mesoporphyrin," "iron(III)mesoporphyrin" and "Fe(III)MPIX" are equivalent, and "N-methyl nesoporphyrin," "NMMP" and "N-MeMPIX" and likewise equivalent.

[6] = peroxidation of the named reducing substrate by the antibody-mesohemin complex

Molecule: CCn1c(=NN=c2sc3cc(S(=O)(=O)O)ccc3n2CC)sc2cc(S(=O)(=O)O)ccc21 [2,2'-azinobis(3-ethylbenzothiazoline-6-sulfonic acid)]
Kcat /Km [1, 6]: 233 M⁻¹ s⁻¹

Molecule: Cc1ncc(CO)c(CNC(Cc2ccc([N+](=O)[O-])cc2)C(=O)O)c1O (stereo not shown) [Schiff base analog]
inhibition of transamination [2]: noticeably inhibited | inhibition of transamination [3]: noticeably inhibited

Molecule: iron(III)mesoporphyrin
pKi [5]: > 8.00

More lines, main results first:

Km ([1]; o-dianisidine peroxidation, 0.6 mM o-dianisidine, H2O2 concentration varied (Lineweaver-Burk, FIG. 4), pH 8.0, 10° C.): 24 mM | Kcat /Km ([1]; o-dianisidine peroxidation, 0.6 mM o-dianisidine, H2O2 concentration varied, pH 8.0, 10° C.): 274 m^-1 s^-1 | kcat ([1]; o-dianisidine peroxidation, 0.6 mM o-dianisidine, H2O2 concentration varied, pH 8.0, 10° C., ε estimated 7500): 6.57 s⁻¹
Molecule: OO [H2 O2, hydrogen peroxide]

Kcat /Km [1, 6]: 122 M⁻¹ s⁻¹
Molecule: Oc1cccc(O)c1O [pyrogallol]

effect of hapten on antibody catalysis of peroxidation ([1]; hapten in a stoichiometric amount relative to antibody binding sites, each of the four reactions): completely blocked antibody catalysis
Molecule: N-Methyl mesoporphyrin [NMMP]
effect of NMMP on the pyrogallol oxidation rate [4]: destroying the catalytic effect
